Legend:
PARP1 = PARP1 (Homo sapiens, UniProt P09874); assay: PARP1 activity assay (Figure S6); also photoaffinity pull-down from HeLa lysate with MS and Western blot; assay type: biochemical
CDK8 = CDK8 (Homo sapiens, UniProt P49336); assay: photoaffinity labeling, streptavidin pull-down and MS in HeLa lysate, enriched over probe […] in two biological replicates; assay type: cell-based
PARP4 = PARP4 (Homo sapiens, UniProt Q9UKK3); assay: competition of probe […] photoaffinity pull-down in HeLa lysate by unlabeled olaparib ([…]), MS; assay type: cell-based
Sequence of PARP4 (Q9UKK3 whole entry): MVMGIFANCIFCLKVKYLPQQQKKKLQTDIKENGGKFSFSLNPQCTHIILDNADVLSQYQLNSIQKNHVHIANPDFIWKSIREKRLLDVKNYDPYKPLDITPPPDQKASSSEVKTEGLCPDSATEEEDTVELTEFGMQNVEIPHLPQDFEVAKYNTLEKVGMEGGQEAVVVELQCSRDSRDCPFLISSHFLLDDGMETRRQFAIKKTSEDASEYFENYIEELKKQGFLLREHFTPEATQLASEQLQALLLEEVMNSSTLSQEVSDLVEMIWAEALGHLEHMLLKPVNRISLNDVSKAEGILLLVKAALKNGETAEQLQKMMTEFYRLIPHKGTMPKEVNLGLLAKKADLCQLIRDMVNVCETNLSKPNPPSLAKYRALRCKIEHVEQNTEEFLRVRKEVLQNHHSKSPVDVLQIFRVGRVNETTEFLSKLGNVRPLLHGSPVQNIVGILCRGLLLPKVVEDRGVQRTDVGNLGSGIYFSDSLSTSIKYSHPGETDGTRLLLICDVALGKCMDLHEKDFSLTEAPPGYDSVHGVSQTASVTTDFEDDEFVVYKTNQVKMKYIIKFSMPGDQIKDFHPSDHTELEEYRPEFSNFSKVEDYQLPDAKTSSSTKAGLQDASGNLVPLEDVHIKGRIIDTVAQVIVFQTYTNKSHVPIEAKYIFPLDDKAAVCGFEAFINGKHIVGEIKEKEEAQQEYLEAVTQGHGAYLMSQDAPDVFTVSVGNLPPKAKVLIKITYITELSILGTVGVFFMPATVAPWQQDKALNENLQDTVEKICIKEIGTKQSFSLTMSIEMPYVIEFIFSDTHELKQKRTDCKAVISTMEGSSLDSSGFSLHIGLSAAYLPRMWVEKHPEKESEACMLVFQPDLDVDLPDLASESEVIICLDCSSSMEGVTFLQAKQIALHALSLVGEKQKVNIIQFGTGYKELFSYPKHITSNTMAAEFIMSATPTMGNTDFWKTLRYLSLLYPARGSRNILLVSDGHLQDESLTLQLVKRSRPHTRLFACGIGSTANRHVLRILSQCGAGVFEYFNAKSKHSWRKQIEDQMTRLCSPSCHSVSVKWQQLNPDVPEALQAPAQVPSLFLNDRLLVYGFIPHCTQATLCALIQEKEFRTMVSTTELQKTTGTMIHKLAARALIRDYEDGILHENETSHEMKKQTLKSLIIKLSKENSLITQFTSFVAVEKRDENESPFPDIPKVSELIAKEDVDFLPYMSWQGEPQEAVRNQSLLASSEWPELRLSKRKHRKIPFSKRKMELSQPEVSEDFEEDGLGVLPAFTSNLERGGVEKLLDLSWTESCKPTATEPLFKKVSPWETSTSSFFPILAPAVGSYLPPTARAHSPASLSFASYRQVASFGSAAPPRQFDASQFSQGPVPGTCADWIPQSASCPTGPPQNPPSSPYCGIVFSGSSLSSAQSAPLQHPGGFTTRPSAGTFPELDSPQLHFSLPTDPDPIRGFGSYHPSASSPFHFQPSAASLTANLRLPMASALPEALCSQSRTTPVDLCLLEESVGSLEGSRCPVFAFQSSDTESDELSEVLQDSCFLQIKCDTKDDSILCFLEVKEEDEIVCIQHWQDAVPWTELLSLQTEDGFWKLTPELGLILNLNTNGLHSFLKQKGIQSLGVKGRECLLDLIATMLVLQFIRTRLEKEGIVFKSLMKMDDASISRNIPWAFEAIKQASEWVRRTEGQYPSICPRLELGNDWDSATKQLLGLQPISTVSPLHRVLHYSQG

Sequence of CDK8 (P49336 whole entry): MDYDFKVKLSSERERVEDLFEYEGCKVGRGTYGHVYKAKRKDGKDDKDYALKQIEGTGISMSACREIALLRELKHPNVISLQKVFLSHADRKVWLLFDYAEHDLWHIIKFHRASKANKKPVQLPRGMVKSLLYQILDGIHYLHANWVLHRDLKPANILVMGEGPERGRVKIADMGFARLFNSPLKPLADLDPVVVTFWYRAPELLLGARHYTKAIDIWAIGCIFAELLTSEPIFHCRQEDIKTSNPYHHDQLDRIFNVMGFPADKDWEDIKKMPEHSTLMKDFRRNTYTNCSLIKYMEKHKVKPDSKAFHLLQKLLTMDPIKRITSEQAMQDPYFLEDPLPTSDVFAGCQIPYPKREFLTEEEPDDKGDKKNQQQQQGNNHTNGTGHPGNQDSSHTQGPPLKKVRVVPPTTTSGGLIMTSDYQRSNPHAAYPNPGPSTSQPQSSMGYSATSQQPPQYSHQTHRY
Sequence of PARP1 (P09874 2-1014): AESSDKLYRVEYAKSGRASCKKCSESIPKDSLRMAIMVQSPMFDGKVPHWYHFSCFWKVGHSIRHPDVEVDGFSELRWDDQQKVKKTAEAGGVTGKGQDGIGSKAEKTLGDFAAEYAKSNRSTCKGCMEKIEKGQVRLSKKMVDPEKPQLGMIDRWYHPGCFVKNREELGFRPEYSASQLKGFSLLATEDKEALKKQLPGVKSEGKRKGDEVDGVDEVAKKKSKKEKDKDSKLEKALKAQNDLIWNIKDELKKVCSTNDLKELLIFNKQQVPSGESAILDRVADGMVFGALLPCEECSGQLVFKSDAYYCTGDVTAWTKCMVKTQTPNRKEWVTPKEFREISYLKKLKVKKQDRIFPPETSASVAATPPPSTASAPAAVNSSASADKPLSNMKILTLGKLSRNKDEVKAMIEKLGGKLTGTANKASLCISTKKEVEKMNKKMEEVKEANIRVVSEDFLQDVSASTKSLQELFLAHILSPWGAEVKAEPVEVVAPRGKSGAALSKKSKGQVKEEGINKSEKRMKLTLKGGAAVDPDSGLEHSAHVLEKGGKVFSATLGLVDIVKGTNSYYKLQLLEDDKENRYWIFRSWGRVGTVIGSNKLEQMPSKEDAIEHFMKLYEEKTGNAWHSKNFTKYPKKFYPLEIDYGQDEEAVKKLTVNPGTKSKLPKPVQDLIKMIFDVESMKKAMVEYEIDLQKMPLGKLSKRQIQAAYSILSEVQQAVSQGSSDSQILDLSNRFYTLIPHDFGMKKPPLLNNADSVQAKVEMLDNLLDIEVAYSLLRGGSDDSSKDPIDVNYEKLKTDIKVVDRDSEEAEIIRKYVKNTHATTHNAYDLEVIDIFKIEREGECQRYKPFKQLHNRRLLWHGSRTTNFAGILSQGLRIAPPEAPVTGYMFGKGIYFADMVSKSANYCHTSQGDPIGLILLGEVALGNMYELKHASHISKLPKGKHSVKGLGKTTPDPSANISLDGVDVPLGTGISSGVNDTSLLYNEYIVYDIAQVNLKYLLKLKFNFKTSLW

IC50 (PARP1) [µM]	SMILES	photoaffinity labeling, streptavidin pull-down and MS in HeLa lysate, enriched o (CDK8)	competition of probe 4 photoaffinity pull-down in HeLa lysate by unlabeled olapa (PARP4)
3.8	O=C(CCCC[C@@H]1SC[C@@H]2NC(=O)N[C@@H]21)NCCOCCOCCOCCn1cc(CCCCC2(CCC(=O)N3CCN(C(=O)c4cc(Cc5n[nH]c(=O)c6ccccc56)ccc4F)CC3)N=N2)nn1 [compound 4, probe 4]	CDK8 and its paralogue CDK19, both transcriptional regulators, were identified in our screening as direct olaparib interactors	–
–	O=C(c1cc(Cc2n[nH]c(=O)c3ccccc23)ccc1F)N1CCN(C(=O)C2CC2)CC1 [olaparib]	–	This concentration‐dependent competition demonstrates the specificity of these interactions for the olaparib pharmacophore
